≈ marks a conversion by molar mass, not a printed value.
How the values were obtained:
[1] = system: Staphylococcus sp.; test: in vitro antibacterial evaluation, MIC by broth dilution; assay type: cell-based; details: broth dilution, 18 hours at 35° C.
How it was run: (§1)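 Test organisms, which included recent clinical isolates resistant to methicillin, penicillin and/or vancomycin, were inoculated at 5×10^5 CFU/mL into Muller-Hinton II […] containing antibiotic at 64-0.06 μg/mL. Minimum inhibitory concentrations were then read as the lowest level inhibiting growth.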

[2] = system: Escherichia coli; test: as above; assay type: cell-based; details: 18 hours at 35° C.
How it was run: as §1

[3] = system: Enterococcus sp.; test: as above; assay type: cell-based; details: broth dilution, 18 hours at 35° C.
How it was run: as §1

[4] = system: Streptococcus sp.; test: as above; assay type: cell-based; details: broth dilution, 18 hours at 35° C.
How it was run: as §1

[5] = system: Staphylococcus aureus-SMITH (GC 4543); test: acute lethal infection in mice; assay type: in vivo; details: acute lethal infection, female CD-1 mice, intraperitoneal challenge, intravenous 30 min. after infection, 7 day survival
How it was run: (§2)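 Intraperitoneal challenge of female CD-1 mice with a bacterial dose lethal to untreated animals within 24-48 hr; single iv treatment 30 min later, 5 mice per dose level. Survival is scored at day 7 and pooled from three experiments to give the median effective dose.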

[6] = system: Enterococcus faecalis (GC 6189); test: acute lethal infection in mice; assay type: in vivo; details: female CD-1 mice, intraperitoneal challenge, intravenous 30 min. after infection, 7 day survival
How it was run: as §2

## CC(c1ccccc1)C1NC(=O)CNC(=O)C(CO)NC(=O)C(C(O)C2CNC(=N)N2C2OC(CO)C(O)C(O)C2O)NC(=O)C(C(O)C2CNC(=N)N2)NC(=O)C(Cc2ccc(OC3OC(CO)C(OC4OC5COC(CC6CCN(C(=O)OCc7ccccc7)CC6)OC5C(O)C4O)C(O)C3O)cc2)NC1=O (stereo not drawn) [Example 113, Cyclo[glycyl-β-methylphenylalanyl-O-[4-O-[4,6-O-[2-[1-[(phenylmethoxy)carbonyl]piperidin-4-yl]ethylidene]hexopyranosyl]hexopyranosyl]tyrosyl-3-(2-iminoimidazolidin-4-yl)seryl-3-(3-hexopyranosyl-2-iminoimidazolidin-4-yl)serylseryl]]
[1]
  MIC Coagulase Negative Staphylococcus (GC 4547): 1 µg/mL (≈ 0.65 µM)
  MIC Coagulase Negative Staphylococcus (GC 4548): 0.5 µg/mL (≈ 0.325 µM)
  MIC Coagulase Negative Staphylococcus (GC 4549): 1 µg/mL (≈ 0.65 µM)
  MIC Coagulase Negative Staphylococcus (GC 4551): 1 µg/mL (≈ 0.65 µM)
  MIC Coagulase Negative Staphylococcus (GC 6257): 0.5 µg/mL (≈ 0.325 µM)
  MIC Staphylococcus aureus (ATCC 29213): 1 µg/mL (≈ 0.65 µM)
  MIC Staphylococcus aureus (GC 1131): 2 µg/mL (≈ 1.3 µM)
  MIC Staphylococcus aureus (GC 3051): 1 µg/mL (≈ 0.65 µM)
  MIC Staphylococcus aureus (GC 3053): 1 µg/mL (≈ 0.65 µM)
  MIC Staphylococcus aureus (GC 4541): 1 µg/mL (≈ 0.65 µM)
  MIC Staphylococcus aureus (GC 4542): 1 µg/mL (≈ 0.65 µM)
  MIC Staphylococcus aureus (GC 4544): 2 µg/mL (≈ 1.3 µM)
  MIC Staphylococcus aureus (GC 4545): 1 µg/mL (≈ 0.65 µM)
  MIC Staphylococcus aureus-SMITH (GC 4543): 1 µg/mL (≈ 0.65 µM)
  MIC Staphylococcus haemolyticus (GC 4546): 1 µg/mL (≈ 0.65 µM)
[1]; inoculum 5×10^5 CFU/mL, strain GC 1131
  MIC Staphylococcus aureus (GC 1131): 2 µg/mL (≈ 1.3 µM)
[1]; strain ATCC 29213
  MIC Staphylococcus aureus (ATCC 29213): 1 µg/mL (≈ 0.65 µM)
[1]; strain GC 3051
  MIC Staphylococcus aureus (GC 3051): 1 µg/mL (≈ 0.65 µM)
[1]; strain GC 3053
  MIC Staphylococcus aureus (GC 3053): 1 µg/mL (≈ 0.65 µM)
[1]; strain GC 4541
  MIC Staphylococcus aureus (GC 4541): 1 µg/mL (≈ 0.65 µM)
[1]; strain GC 4542
  MIC Staphylococcus aureus (GC 4542): 1 µg/mL (≈ 0.65 µM)
[1]; strain GC 4544
  MIC Staphylococcus aureus (GC 4544): 2 µg/mL (≈ 1.3 µM)
[1]; strain GC 4545
  MIC Staphylococcus aureus (GC 4545): 1 µg/mL (≈ 0.65 µM)
[1]; strain GC 4546
  MIC Staphylococcus haemolyticus (GC 4546): 1 µg/mL (≈ 0.65 µM)
[1]; strain GC 4547
  MIC Coagulase Negative Staphylococcus (GC 4547): 1 µg/mL (≈ 0.65 µM)
[1]; strain GC 4548
  MIC Coagulase Negative Staphylococcus (GC 4548): 0.5 µg/mL (≈ 0.325 µM)
[1]; strain GC 4549
  MIC Coagulase Negative Staphylococcus (GC 4549): 1 µg/mL (≈ 0.65 µM)
[1]; strain GC 4551
  MIC Coagulase Negative Staphylococcus (GC 4551): 1 µg/mL (≈ 0.65 µM)
[1]; strain GC 6257
  MIC Coagulase Negative Staphylococcus (GC 6257): 0.5 µg/mL (≈ 0.325 µM)
[1]; strain SMITH GC 4543
  MIC Staphylococcus aureus-SMITH (GC 4543): 1 µg/mL (≈ 0.65 µM)
[2]; strain ATCC 25922
  MIC Escherichia coli (ATCC 25922): 32 µg/mL (≈ 20.8 µM)
[2]; strain GC 4559
  MIC Escherichia coli (GC 4559): 32 µg/mL (≈ 20.8 µM)
[2]; strain GC 4560
  MIC Escherichia coli (GC 4560): 1 µg/mL (≈ 0.65 µM)
[3]; Enterococcus avium (GC 4558)
  MIC Enterococcus avium (GC 4558): 2 µg/mL (≈ 1.3 µM)
[3]; Enterococcus faecalis (ATCC 29212)
  MIC Enterococcus faecalis (ATCC 29212): 2 µg/mL (≈ 1.3 µM)
[3]; Enterococcus faecalis (GC 2242)
  MIC Enterococcus faecalis (GC 2242): 4 µg/mL (≈ 2.6 µM)
[3]; Enterococcus faecalis (GC 2691)
  MIC Enterococcus faecalis (GC 2691): 4 µg/mL (≈ 2.6 µM)
[3]; Enterococcus faecalis (GC 3059)
  MIC Enterococcus faecalis (GC 3059): 2 µg/mL (≈ 1.3 µM)
[3]; Enterococcus faecalis (GC 4552)
  MIC Enterococcus faecalis (GC 4552): 2 µg/mL (≈ 1.3 µM)
[3]; Enterococcus faecalis (GC 4553)
  MIC Enterococcus faecalis (GC 4553): 2 µg/mL (≈ 1.3 µM)
[3]; Enterococcus faecalis (GC 4554)
  MIC Enterococcus faecalis (GC 4554): 2 µg/mL (≈ 1.3 µM)
[3]; Enterococcus faecalis (GC 6189)
  MIC Enterococcus faecalis (GC 6189): 2 µg/mL (≈ 1.3 µM)
[3]; Enterococcus faecium (GC 2243)
  MIC Enterococcus faecium (GC 2243): 2 µg/mL (≈ 1.3 µM)
[3]; Enterococcus faecium (GC 4556)
  MIC Enterococcus faecium (GC 4556): 2 µg/mL (≈ 1.3 µM)
[3]; Enterococcus faecium (GC 4557)
  MIC Enterococcus faecium (GC 4557): 2 µg/mL (≈ 1.3 µM)
[3]; strain ATCC 29212
  MIC Enterococcus faecalis (ATCC 29212): 2 µg/mL (≈ 1.3 µM)
[3]; strain GC 2242
  MIC Enterococcus faecalis (GC 2242): 4 µg/mL (≈ 2.6 µM)
[3]; strain GC 2243
  MIC Enterococcus faecium (GC 2243): 2 µg/mL (≈ 1.3 µM)
[3]; strain GC 2691
  MIC Enterococcus faecalis (GC 2691): 4 µg/mL (≈ 2.6 µM)
[3]; strain GC 3059
  MIC Enterococcus faecalis (GC 3059): 2 µg/mL (≈ 1.3 µM)
[3]; strain GC 4552
  MIC Enterococcus faecalis (GC 4552): 2 µg/mL (≈ 1.3 µM)
[3]; strain GC 4553
  MIC Enterococcus faecalis (GC 4553): 2 µg/mL (≈ 1.3 µM)
[3]; strain GC 4554
  MIC Enterococcus faecalis (GC 4554): 2 µg/mL (≈ 1.3 µM)
[3]; strain GC 4556
  MIC Enterococcus faecium (GC 4556): 2 µg/mL (≈ 1.3 µM)
[3]; strain GC 4557
  MIC Enterococcus faecium (GC 4557): 2 µg/mL (≈ 1.3 µM)
[3]; strain GC 4558
  MIC Enterococcus avium (GC 4558): 2 µg/mL (≈ 1.3 µM)
[3]; strain GC 6189
  MIC Enterococcus faecalis (GC 6189): 2 µg/mL (≈ 1.3 µM)
[4]; Streptococcus agalactiae (GC 4564)
  MIC Streptococcus agalactiae (GC 4564): 0.12 µg/mL (≈ 0.078 µM)
[4]; Streptococcus pneumoniae (ATCC 6301)
  MIC Streptococcus pneumoniae (ATCC 6301): <0.06 µg/mL
[4]; Streptococcus pneumoniae (GC 1894)
  MIC Streptococcus pneumoniae (GC 1894): <0.06 µg/mL
[4]; Streptococcus pneumoniae (GC 4565)
  MIC Streptococcus pneumoniae (GC 4565): <0.06 µg/mL
[4]; Streptococcus pyogenes (GC 4563)
  MIC Streptococcus pyogenes (GC 4563): <0.06 µg/mL
[4]; strain ATCC 6301
  MIC Streptococcus pneumoniae (ATCC 6301): <0.06 µg/mL
[4]; strain GC 1894
  MIC Streptococcus pneumoniae (GC 1894): <0.06 µg/mL
[4]; strain GC 4563
  MIC Streptococcus pyogenes (GC 4563): <0.06 µg/mL
[4]; strain GC 4564
  MIC Streptococcus agalactiae (GC 4564): 0.12 µg/mL (≈ 0.078 µM)
[4]; strain GC 4565
  MIC Streptococcus pneumoniae (GC 4565): <0.06 µg/mL
[5]
  median effective dose (ED50), Staphylococcus aureus-SMITH (GC 4543): 0.26 mg/kg
[6]
  median effective dose (ED50), Enterococcus faecalis (GC 6189): 1.04 mg/kg

Source: patent US6914045B2, “Glycopeptide antibiotics” (Wyeth Holdings Corporation, priority 2001, dated 2005)
